The source of these data is ChEMBL document CHEMBL4387706, “Discovery of Novel Spiroindoline Derivatives as Selective Tankyrase Inhibitors” (J Med Chem, 2019).

Converted amounts (≈) assume the structure as drawn. The source made the active and inactive calls. No cut-off for these calls is given here. Where only a bound is given, the exact number is not on record here.

A short description of one data set: physchem. Particulars: phosphate buffer, pH 7.4.
A short description of data set [1]: in vitro. The conditions noted are these: mouse, liver microsomes.
Description: Stability in mouse liver microsomes assessed as parent compound remaining at 1 uM measured after 30 mins in presence of NADPH by LC-MS/MS analysis
The test system of data set [2] is RKO. The experiment in a line: Antiproliferative activity against human RKO cells assessed reduction in cell viability at 0.3 uM measured after 5 days by MTT assay. The class given is functional, cell-based. (Tetrazolium assays rely on reduction of a dye to a coloured formazan, in cell work by metabolically active cells.)
A short description of data set [3]: Cmax in ICR mouse at 50 mg/kg, ip. The class given is ADME, organism-based. Set-up: dose 50 mg/kg, route intraperitoneal. Particulars: in vivo.
Data set [4] deals with COLO 320DM. As to the kind of experiment: Antiproliferative activity against human COLO320DM cells assessed inhibition of cell growth measured after 5 days by MTT assay. The class given is functional. The conditions noted are these: 120 h.
For data set [5], the target named is T1, Poly [ADP-ribose] polymerase tankyrase-1 (Homo sapiens, UniProt O95271).
T1 sequence (O95271 whole entry): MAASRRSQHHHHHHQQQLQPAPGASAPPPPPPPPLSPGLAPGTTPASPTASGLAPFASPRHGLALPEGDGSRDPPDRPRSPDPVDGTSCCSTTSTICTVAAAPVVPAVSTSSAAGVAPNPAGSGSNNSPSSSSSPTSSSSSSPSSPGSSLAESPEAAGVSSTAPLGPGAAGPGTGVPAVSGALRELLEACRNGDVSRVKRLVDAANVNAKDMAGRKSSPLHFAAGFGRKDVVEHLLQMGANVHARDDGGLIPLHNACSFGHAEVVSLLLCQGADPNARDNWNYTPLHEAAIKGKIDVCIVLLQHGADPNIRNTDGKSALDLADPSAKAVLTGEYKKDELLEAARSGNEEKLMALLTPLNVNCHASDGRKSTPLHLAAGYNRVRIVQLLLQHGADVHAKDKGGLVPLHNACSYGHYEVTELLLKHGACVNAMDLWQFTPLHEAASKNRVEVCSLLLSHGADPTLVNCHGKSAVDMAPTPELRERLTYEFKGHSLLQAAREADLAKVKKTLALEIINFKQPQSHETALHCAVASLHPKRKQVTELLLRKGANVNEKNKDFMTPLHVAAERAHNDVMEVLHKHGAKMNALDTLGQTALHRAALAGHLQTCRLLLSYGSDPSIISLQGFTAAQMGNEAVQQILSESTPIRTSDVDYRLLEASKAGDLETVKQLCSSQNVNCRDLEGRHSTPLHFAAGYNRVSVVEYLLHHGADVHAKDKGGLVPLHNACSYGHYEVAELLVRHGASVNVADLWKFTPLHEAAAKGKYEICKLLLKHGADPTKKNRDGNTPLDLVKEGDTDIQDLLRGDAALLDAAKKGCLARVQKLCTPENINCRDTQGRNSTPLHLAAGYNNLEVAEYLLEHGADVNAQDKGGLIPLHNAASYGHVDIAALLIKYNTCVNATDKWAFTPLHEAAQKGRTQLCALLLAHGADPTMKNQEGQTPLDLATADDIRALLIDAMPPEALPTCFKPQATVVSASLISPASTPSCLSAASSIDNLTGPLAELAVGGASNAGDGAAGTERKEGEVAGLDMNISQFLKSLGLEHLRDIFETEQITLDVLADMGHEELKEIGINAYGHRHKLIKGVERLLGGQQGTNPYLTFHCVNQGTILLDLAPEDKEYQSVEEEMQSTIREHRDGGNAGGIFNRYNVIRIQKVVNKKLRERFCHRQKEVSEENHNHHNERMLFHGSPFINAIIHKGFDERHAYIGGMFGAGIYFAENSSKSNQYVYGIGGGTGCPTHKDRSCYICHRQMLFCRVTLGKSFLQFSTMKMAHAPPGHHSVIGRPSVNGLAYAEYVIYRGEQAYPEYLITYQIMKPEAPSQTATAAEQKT
Description: Inhibition of recombinant human N-terminal TEV cleavage site-fused/FLAG-poly his-tagged TNKS SAM-PARP domain (1024 to 1327 residues) expressed in Escherichia coli assessed as reduction in auto-PARylation preincubated for 10 mins followed by biotinylated-NAD+ addition and measured after 45 mins by ELISA

The nature of data set [6]: in vitro. The conditions noted are these: human, liver microsomes. In general terms: Liver microsomes are vesicles of endoplasmic reticulum, rich in cytochrome P450 enzymes.
Description: Stability in human liver microsomes assessed as parent compound remaining at 1 uM measured after 30 mins in presence of NADPH by LC-MS/MS analysis
Data set [7] has as its target Tankyrase 1/2 (Homo sapiens) (UniProt Q9H2K2+O95271). The experiment in a line: Inhibition of TNKS/TNKS2 in human COLO320DM cells assessed as upregulation of AXIN2 expression at 0.1 uM measured after 16 hrs by Western blot analysis relative to G007-LK. The class given is cell-based. In general terms: In western blotting, separated proteins are transferred to a membrane and probed.

Data set [8] deals with T2, Poly [ADP-ribose] polymerase tankyrase-2 (Homo sapiens, UniProt Q9H2K2).
T2 sequence (Q9H2K2 whole entry): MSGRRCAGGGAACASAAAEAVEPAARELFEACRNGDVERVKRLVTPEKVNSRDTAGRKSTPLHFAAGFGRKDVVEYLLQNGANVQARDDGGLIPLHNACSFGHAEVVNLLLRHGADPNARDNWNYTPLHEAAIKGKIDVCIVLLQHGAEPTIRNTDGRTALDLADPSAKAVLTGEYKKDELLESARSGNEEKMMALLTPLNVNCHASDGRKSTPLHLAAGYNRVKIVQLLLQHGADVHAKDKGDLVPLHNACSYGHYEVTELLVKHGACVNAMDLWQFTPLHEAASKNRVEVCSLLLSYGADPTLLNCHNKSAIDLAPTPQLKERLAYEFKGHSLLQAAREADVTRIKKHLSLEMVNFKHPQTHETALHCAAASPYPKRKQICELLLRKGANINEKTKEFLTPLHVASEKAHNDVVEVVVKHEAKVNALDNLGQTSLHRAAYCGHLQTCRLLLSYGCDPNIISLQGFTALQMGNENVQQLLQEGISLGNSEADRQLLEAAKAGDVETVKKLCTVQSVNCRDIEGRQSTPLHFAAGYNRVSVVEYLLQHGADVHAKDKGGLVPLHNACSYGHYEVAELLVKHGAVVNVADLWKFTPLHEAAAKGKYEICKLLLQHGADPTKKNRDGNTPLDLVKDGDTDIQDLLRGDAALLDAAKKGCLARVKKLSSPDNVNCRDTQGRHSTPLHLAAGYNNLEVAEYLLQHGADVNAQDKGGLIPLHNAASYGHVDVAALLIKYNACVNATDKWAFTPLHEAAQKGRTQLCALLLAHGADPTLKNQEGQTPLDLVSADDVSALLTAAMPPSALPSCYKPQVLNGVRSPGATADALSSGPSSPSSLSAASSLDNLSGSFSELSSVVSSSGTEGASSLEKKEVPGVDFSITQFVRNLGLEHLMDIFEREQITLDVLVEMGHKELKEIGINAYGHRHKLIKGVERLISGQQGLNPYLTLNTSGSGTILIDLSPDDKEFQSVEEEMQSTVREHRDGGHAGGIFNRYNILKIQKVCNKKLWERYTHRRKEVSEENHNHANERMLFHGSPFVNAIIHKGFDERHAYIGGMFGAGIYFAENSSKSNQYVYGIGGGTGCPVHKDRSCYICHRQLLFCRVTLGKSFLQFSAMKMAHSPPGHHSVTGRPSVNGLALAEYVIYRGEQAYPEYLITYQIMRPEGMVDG
Description: Inhibition of recombinant human N-terminal TEV cleavage site-fused/FLAG-poly his-tagged TNKS2 SAM-PARP domain (613 to 1166 residues) expressed in Escherichia coli assessed as reduction in auto-PARylation preincubated for 10 mins followed by biotinylated-NAD+ addition and measured after 45 mins by ELISA

The subject of data set [9] is RKO. The experiment in a line: Antiproliferative activity against human RKO cells assessed inhibition of cell growth measured after 5 days by MTT assay. The class given is functional. The conditions noted are these: 120 h.
Data set [10] is described as follows: Permeability of the compound by PAMPA. The class given is ADME. Particulars: read-out: permeability.
A further data set addresses T3, Tankyrase 1/2 (Homo sapiens, UniProt Q9H2K2+O95271).
T3 sequence (Q9H2K2 whole entry): T2 sequence (Q9H2K2 whole entry)
T3 sequence (O95271 whole entry): T1 sequence (O95271 whole entry)

The nature of data set [11]: Protein binding in mouse serum assessed as unbound fraction at 1 uM measured after 24 hrs by LC-MS/MS analysis. The class given is ADME, cell-free.
Data set [12] concerns the target Poly [ADP-ribose] polymerase 1 (Homo sapiens, UniProt P09874).
Description: Inhibition of recombinant human PARP1 expressed in Escherichia coli assessed as reduction in auto-PARylation using histone as substrate measured after 45 mins in presence of biotinylated-NAD+ by ELISA
Data set [13] is described as follows: AUC (infinity) in ICR mouse at 50 mg/kg, ip. The class given is ADME, organism-based. Also noted: dose 50 mg/kg, route intraperitoneal, time infinity. Particulars: in vivo.
The nature of data set [14]: Half life in ICR mouse at 50 mg/kg, ip. The class given is ADME, organism-based. Particulars: in vivo.
A short description of data set [15]: Protein binding in human serum assessed as unbound fraction at 1 uM measured after 24 hrs by LC-MS/MS analysis. The class given is ADME, cell-free.
In data set [16] the test system is COLO 320DM. As to the kind of experiment: cells. The conditions noted are these: Homo sapiens, 96 h.
Description: Antiproliferative activity against human COLO320DM cells assessed as inhibition of cell growth measured after 4 days by CellTiter-Glo assay

Sequence of Poly [ADP-ribose] polymerase 1 (P09874 whole entry): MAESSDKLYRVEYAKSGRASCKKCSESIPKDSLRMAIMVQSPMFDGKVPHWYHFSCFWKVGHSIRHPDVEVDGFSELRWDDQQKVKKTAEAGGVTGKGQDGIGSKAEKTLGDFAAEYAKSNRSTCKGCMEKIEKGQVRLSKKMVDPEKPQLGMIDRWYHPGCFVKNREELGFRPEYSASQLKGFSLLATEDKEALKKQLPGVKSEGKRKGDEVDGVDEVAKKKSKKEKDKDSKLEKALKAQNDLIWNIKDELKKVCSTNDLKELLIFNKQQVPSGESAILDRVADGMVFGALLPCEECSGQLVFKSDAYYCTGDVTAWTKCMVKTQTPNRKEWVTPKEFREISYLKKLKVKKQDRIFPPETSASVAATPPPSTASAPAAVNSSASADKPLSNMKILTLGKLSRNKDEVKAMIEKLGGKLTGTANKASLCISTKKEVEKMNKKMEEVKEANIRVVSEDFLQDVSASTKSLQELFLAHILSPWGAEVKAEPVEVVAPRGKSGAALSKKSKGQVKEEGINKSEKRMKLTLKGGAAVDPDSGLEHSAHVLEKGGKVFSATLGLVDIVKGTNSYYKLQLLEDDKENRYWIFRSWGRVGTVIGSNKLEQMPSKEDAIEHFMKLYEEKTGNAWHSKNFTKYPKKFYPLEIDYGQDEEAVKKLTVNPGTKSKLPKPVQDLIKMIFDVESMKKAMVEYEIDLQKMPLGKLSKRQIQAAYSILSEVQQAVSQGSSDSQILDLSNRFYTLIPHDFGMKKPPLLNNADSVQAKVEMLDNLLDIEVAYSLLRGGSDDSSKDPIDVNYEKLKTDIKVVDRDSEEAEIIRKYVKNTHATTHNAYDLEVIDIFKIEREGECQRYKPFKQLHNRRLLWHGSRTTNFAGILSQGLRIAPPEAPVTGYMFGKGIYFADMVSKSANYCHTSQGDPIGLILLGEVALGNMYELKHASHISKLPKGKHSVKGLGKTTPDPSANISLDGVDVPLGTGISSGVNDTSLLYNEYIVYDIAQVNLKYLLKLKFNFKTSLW

The solubility is how much of the substance goes into solution per volume. High values mean much dissolved substance, low ones little dissolved substance. Usually share remaining stands for the share of the starting amount still present when the sample was taken. A higher share remaining goes with less turnover. What is called Cmax is the maximum level reached in the sampled fluid or tissue. A word on the GI50: it is the concentration at which growth is held to half of that of the control. Low readings indicate more potent growth inhibition, high ones less potent growth inhibition. As usually defined, the IC50 is the concentration needed to halve the response being measured. In general, fraction unbound refers to the share of the substance not bound to proteins or other matrix. By AUC(0-inf) is commonly meant the area under the concentration-time curve extrapolated to infinity. A word on the half-life: it is how long it takes for the measured level to halve. A higher half-life goes with slow loss. Consider `O=C1N(CCO)c2cccc(Cl)c2C12CCN(c1nc3c(c(=O)[nH]1)CCCC3)CC2`, for which, in “physchem”, the solubility at 1 h, 200 µM stood at 0.0845 mg/mL (≈ 197 µM). For the same compound, the amount remaining at 0.5 h, 1 µM amounted to 19.1% in the data set “in vitro [1]” and 28.9% in “in vitro [6]”. The outcome with RKO [2] was Active. This compound also came in with a peak concentration (Cmax) in data set [3] of 5.35 µM. Further, the GI50 with COLO 320DM [4] is 0.25 µM; in the data set on RKO [9] it was more than 10 µM; in the data set with COLO 320DM [16] it was 1 µM. Also, the IC50 in [5] was 0.0044 µM; in data set [8] it was 0.0068 µM; against Tankyrase 1/2, 0.0139 µM; in data set [12], more than 20 µM. In addition, in data set [7], the fold change (FC) was 5.75. Further, the Papp in data set [10] came to 11 nm/s. Besides, the results for the fraction unbound at 24 h, 1 µM in data set [11] and in data set [15] were 0.042 and 0.018, respectively. The compound further had an AUC(0-inf) in [13] of 157 µM·h. In data set [14], this compound had a half-life of 4.1 h.
In “physchem”, `O=C1N(CCO)c2cc(F)cc(F)c2C12CCN(c1nc3c(c(=O)[nH]1)CCCC3)CC2` registered a solubility at 1 h, 200 µM of 0.0769 mg/mL (≈ 179 µM). Further, the fraction remaining at 0.5 h, 1 µM in the data set “in vitro [1]” came out at 39.1%; in the data set “in vitro [6]”, 39.5%. In the data set on RKO [2], the result was Active. In addition, in data set [3], the peak level (Cmax) was 48.1 µM. For the same compound, the values for the concentration for 50% growth inhibition (GI50) in the data set on COLO 320DM [4], in the data set with RKO [9] and with COLO 320DM [16] were 0.47 µM, more than 10 µM and 2.4 µM, respectively. In addition, the IC50 in data set [5] was 0.01 µM; in [8] it was 0.0151 µM; at Tankyrase 1/2 it was 0.0794 µM; in data set [12] it was more than 20 µM. In addition, the fold change (FC) in data set [7] is 3.93. In addition, in data set [10], the Papp turned out to be 79 nm/s. Also, the free fraction (fraction unbound) at 24 h, 1 µM in data set [11] came to 0.077; in data set [15], 0.017. The AUC(0-inf) in [13] came to 106 µM·h. The compound further gave a half-life in data set [14] of 3.6 h.
